The record followed here is EP0943606A1, “BENZENESULFONAMIDE DERIVATIVES AND DRUGS CONTAINING THE SAME” (HOKURIKU SEIYAKU CO., LTD., priority 1996, dated 1998).

Molecules are shown by their SMILES.

The test system of data set [1] is bronchoconstriction induced by U-46619. As to the kind of experiment: Inhibitory effect on bronchoconstriction induced by U-46619 (Konzett-Roessler). It counts as in vivo, Male Hartley guinea-pigs. Conditions: Cavia porcellus; 0.3 mg/kg orally, 2 hours before U-46619 (4 µg/kg, cervical vein), anesthetized guinea-pigs, compared to control group; read-out: Inhibition rate (%). On the procedure: Airway resistance was evaluated according to the method of Konzett-Roessler [Naunyn-Schmiedberg's Arch. Exp. Path. Pharmak., Vol. 195, 71 (1940)]. Male Hartley guinea-pigs (about 400g wt.) were anesthetized with urethane (1.5g/kg, i.p.) and ventilated by an artificial respirator (Model 683; Harvard). At the same time, overflowed air volume above the pressure of about 12cm H2O was measured by using a sensor (Model 7020; Ugo Basile) and the value was used as an index of bronchoconstriction. 0.3 mg/kg (5 ml/kg) of test compounds suspended in 5% gum Arabic was administered orally to the guinea-pigs fasted beforehand for 24 hours. After 2 hours, U-46619 (4 µg/kg; Cayman) was administered through the cervical vein, and then maximal response was measured. Inhibitory rates compared to the control group were calculated based on the response rate normalized by the complete closure as 100%. […]

Another data set concerns the target T1, leukotriene D4 (Cavia porcellus, UniProt Q2NNR5).
T1 construct: tracheas were isolated from male Hartley guinea-pigs, and spiral specimens of approximately 2 cm length were prepared; from tissue; host or cells: isolated guinea-pig trachea (spiral strips)
T1 sequence (Q2NNR5 1-340): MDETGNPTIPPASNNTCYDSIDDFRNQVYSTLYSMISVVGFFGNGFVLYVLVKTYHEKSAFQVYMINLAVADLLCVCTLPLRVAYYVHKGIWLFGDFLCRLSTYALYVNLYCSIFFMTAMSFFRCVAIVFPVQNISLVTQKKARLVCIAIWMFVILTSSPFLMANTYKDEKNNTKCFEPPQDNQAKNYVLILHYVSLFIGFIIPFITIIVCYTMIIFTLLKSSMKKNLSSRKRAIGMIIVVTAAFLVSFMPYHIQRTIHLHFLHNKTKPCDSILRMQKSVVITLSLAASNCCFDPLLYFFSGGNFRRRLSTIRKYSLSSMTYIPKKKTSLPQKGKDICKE
As to the kind of experiment: Leukotriene D4 antagonistic effect (isolated trachea, leukotriene D4 concentration-response curves, Schild). Particulars: isolated guinea-pig trachea, contraction by leukotriene D4, test compound treatment 30 minutes, indomethacin 1 × 10^-6M, method of Schild. Details: species or system male Hartley guinea-pigs. On the procedure: According to an ordinary method, tracheas were isolated from male Hartley guinea-pigs, and spiral specimens of approximately 2 cm length were prepared. These specimens were suspended isotonically in organ baths that contained Krebs-Henseleit solution at 37°C under a resting tension of 0.5g. After contractions with acetylcholine (1 × 10^-5M; Ovisot for injection, Daiichi Seiyaku), and the first concentration-response curves were obtained by cumulative applications of 10^-10 to 10^-8M of leukotriene D4 (ULTRA FINE) in the organ baths. After treatments with test compounds at adequate concentrations for 30 minutes, the second concentration-response curves were obtained in the same manner as the first applications. pKB values were calculated using these two concentration-response curves according to the method of Schild [Pharmacological Review, Vol. 9, 242 (1957)]. Indomethacin (1 × 10^-6M, Sigma) was added beforehand to the organ bath to eliminate possible affections by thromboxane A2 and prostaglandin produced by stimulus of leukotriene D4 [Japan J. Pharmacol., Vol. 60, 227 (1992)]. […]

Data set [2] has as its target T2, thromboxane A2 / prostaglandin H2 receptor (Cavia porcellus, UniProt A0A286Y4I8).
T2 construct: tracheas were isolated from male Hartley guinea-pigs, and spiral specimens of approximately 2 cm length were prepared; from tissue; host or cells: isolated guinea-pig trachea (spiral strips)
T2 sequence (A0A286Y4I8 1-347): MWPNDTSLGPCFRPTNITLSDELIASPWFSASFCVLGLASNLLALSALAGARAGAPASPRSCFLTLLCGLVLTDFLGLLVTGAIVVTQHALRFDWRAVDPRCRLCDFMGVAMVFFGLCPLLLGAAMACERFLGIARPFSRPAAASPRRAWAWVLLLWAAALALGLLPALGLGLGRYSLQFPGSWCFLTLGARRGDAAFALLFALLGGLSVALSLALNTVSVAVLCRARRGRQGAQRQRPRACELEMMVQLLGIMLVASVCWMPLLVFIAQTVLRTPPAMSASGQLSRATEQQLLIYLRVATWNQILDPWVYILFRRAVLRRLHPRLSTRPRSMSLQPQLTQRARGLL
As to the kind of experiment: Thromboxane A2 antagonistic effect (isolated trachea, U-46619 concentration-response curves, Schild). Particulars: isolated guinea-pig trachea, contraction by U-46619, test compound treatment 5 minutes, indomethacin 3 × 10^-6M, method of Schild. Details: species or system male Hartley guinea-pigs. On the procedure:
According to an ordinary method, tracheas were isolated from male Hartley guinea-pigs, and spiral specimens of approximately 2 cm length were prepared. These specimens were suspended in organ baths that contained Krebs-Henseleit solution at 37°C under a resting tension of 1.5 g, and the changes in isometric tension were recorded. The first concentration-response curves were obtained by cumulative applications of 1 × 10^-9 to 3 × 10^-7M of U-46619 (Cayman, thromboxane A2 / prostaglandin H2 receptor agonist) in the organ baths. After treatments with test compounds at adequate concentrations for 5 minutes, the second concentration-response curves were obtained in the same manner as the first applications. pKB values were calculated using these two concentration-response curves according to the method of Schild [Pharmacological Review, Vol. 9, 242 (1957)]. Indomethacin (3 × 10^-6M, Sigma) was added beforehand to the organ bath to eliminate possible affections by thromboxane A2 and prostaglandin produced endogenously [Japan J. Pharmacol., Vol. 60, 227 (1992)].

The next data set has as its system human liver microsomes. As to the kind of experiment: In vitro metabolism test. It counts as in vitro ADME. Particulars: 0.4mg protein/ml human liver microsomes, 0.02 mM test compound, NADPH-generating system, 37°C for 30 minutes, HPLC. The protocol: 0.05 mM EDTA-0.1M phosphate buffer (pH 7.4), distilled water, 0.4mg protein/ml human liver microsomes and 0.02 mM test compound were mixed in a test tube under ice-cooling. After the mixture was shaken at 37°C for 2 minutes beforehand, the mixture was added with a ready-mix of NADPH-generating system and then shaken at 37°C for 30 minutes. After the incubation, the reaction was stopped by cooling with ice. The mixture was added with acetonitrile and well mixted, and then centrifuged at 3000 rpm for 10 minutes. The resulting supernatant was subjected to HPLC measurement, and the residual rate of test compound was calculated from the ratio of a peak area of an unchanged compound in the reaction sample in comparison with a non-reaction mixture. Preparations of reagents and reaction mixtures were carried out by referring to Shin Seikagaku Koza, Vol. 5: Biological oxidation and drug metabolism edited by The Japanese Biochemical Society. […]
Background: Microsomes from liver hold many membrane-bound enzymes, among them those of drug oxidation.

For data set [3], the system named is bronchoconstriction induced by leukotriene D4. As to the kind of experiment: Inhibitory effect on bronchoconstriction induced by leukotriene D4 (Konzett-Roessler). Particulars: Cavia porcellus; oral administration 2 hours before leukotriene D4 (1 µg/kg, cervical vein), anesthetized guinea-pigs, indomethacin and propranolol pretreated. It counts as in vivo, Male Hartley guinea-pigs. The protocol: Airway resistance was evaluated according to the method of Konzett-Roessler [Naunyn-Schmiedberg's Arch. Exp. Path. Pharmak., Vol. 195, 71 (1940)]. Male Hartley guinea-pigs fasted beforehand for 24 hours were anesthetized with urethane, and then overflowed air volume was measured under artificial ventilation as an index of bronchoconstriction. Various doses of test compounds suspended in 5% gum Arabic were administered orally, and after 2 hours, leukotriene D4 (1 µg/kg; ULTRA FINE) was administered through the cervical vein. Then, values at 2 minutes were measured when maximum responses were obtained. Inhibitory rates compared to the control group were calculated based on the response rate normalized by the overflowed volume at complete closure as 100% bronchoconstriction rate, and the 50% inhibitory doses (ED50 values) were calculated using dose-inhibitory rate curves. Indomethacin (2mg/kg, i.v.) and propranolol (1mg/kg, i.v.) were administered at 10 minutes and 5 minutes before the administration of leukotriene D4, respectively. […]

Consider `O=C(O)CCCc1ccc(C(CCCC(F)(C(F)(F)F)C(F)(F)F)NS(=O)(=O)c2ccc(F)cc2)s1` (stereo not drawn) [Example 183, 4-[5-[5,6,6.6-Tetrafluoro-5-trifluoromethyl-1-(4-fluorophenylsulfonylamino)hexyl]-2-thienyl]butyric Acid], for which the inhibition in vivo at 0.3 mg/kg in data set [1] is 89%. The Kb (in general, the equilibrium dissociation constant of an antagonist, usually derived from a functional assay) at leukotriene D4 was 398 nM; in data set [2], 2 nM. Besides, in the data set on human liver microsomes, the “Residual rate (%)” value was 78%. The ED50 (usually the midpoint of the dose-response relation) in data set [3] stood at 1.1 mg/kg.
The matching figures for `O=C(O)CCCc1ccc(C(CCCC(F)(F)C(F)(F)F)NS(=O)(=O)c2ccc(F)cc2)cc1` (stereo not drawn) [Example 189, 4-[4-[5,5,6,6,6-Pentafluoro-1-(4-fluorophenylsulfonylamino)hexyl]phenyl]butyric Acid]: 71%, 251 nM, 2.51 nM, 88% and 0.92 mg/kg.
Turning to `O=C(O)CCCc1ccc(C(CCCC(F)(F)C(F)(F)F)NS(=O)(=O)c2ccc(Cl)cc2)cc1` (stereo not drawn) [Example 188, 4-[4-[1-(4-Chlorophenylsulfonylamino)-5,5,6,6,6-pentafluorohexyl]phenyl]butyric Acid], in data set [1], the inhibition in vivo at 0.3 mg/kg worked out at 88%. Also, the Kb is 200 nM on leukotriene D4 and 0.794 nM in data set [2]. The “Residual rate (%)” value with human liver microsomes worked out at 74%. Besides, the ED50 in data set [3] was found to be 1.6 mg/kg.
